Measured values as given in patent US7902373B2 (Pfizer Inc, priority 2006, dated 2011).
Structures can show the parent of a compound that is named as a salt.

What follows are compounds tested against T1, human recombinant H-PGDS (Homo sapiens, UniProt O60760) (assay: Slightly modified h-PGDS TBA enzyme assay (Examples 623 onwards)). Settings: not given.
T1 sequence (O60760 whole entry): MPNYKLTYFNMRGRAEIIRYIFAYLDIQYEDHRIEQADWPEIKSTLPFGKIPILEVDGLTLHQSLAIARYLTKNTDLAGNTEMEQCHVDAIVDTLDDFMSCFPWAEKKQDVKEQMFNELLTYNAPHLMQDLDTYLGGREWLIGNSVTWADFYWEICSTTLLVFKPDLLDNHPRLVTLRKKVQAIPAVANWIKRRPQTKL
Format: biochemical
Procedure: Prostaglandin D Synthase (PGDS) converts the substrate prostaglandin H2 (PGH2) to prostaglandin D2.
Examples 623 onwards were tested in a slightly modified assay: The enzyme assay (30 μls during biological process) contained 100 mM Trizma pH 8.0, 100 μM MgCl2, 0.1 mg/ml IgG Rabbit serum, 5.0 μM PGH2 (Cayman; ethanol solution, #17020), 2.5 mM L-Glutathione (Sigma; reduced form #G4251), 1:40,000 human recombinant H-PGDS (from 1 mg/ml), 0.5% DMSO and inhibitor (varying concentration). 3 μls of diluted inhibitor (dissolved in DMSO) was plated into a 384-well assay plate followed by a 24 μl addition of an enzyme solution containing h-PGDS, Trizma, MgCl2, IgG and L-Glutathione. After pre-incubation of inhibitor and enzyme solution for 10 minutes at room temperature, the reaction was initiated with a 3 μl addition of substrate solution in 10 mM HCl. The reaction was terminated after 40 second by the addition of 3 μl stop buffer containing FeCl2 and citric acid. After addition of 45 μl of TBA plates were heated for one hour in a 70° C. oven. Plates were cooled at room temperature overnight and read on a plate reader the next day with excitation @ 530 nm and emission @ 560 nm. IC50's of inhibitors were calculated with a 4-parameter fit using 11 inhibitor concentrations in duplicate with 1/2 log serial dilutions. […] The highest inhibitor concentration tested was typically 10 μM.
In the case of `CCCN1CCC(NC(=O)c2ccc(-c3cc(F)ccc3O)nc2)CC1` [Example 638], the IC50 is reported as 83.3 nM.
`CCCN1CCC(NC(=O)c2ccc(-c3ccccc3O)nc2)CC1` [Example 631] was tested, and the IC50 was 82.4 nM.
For `N#Cc1cccc(-c2ccc(C(=O)NC3CCN(CC(F)(F)F)CC3)cn2)c1` [Example 623, 6-(3-Cyanophenyl)-N-[1-(2,2,2-trifluoroethyl)piperidin-4-yl]nicotinamide], the IC50 was 104 nM.
`O=C1CC(NC(=O)c2ccc(-c3cccc(F)c3)nc2)c2ccccc2N1` (centres unmarked) [Example 650, 6-(3-Fluorophenyl)-N-(2-oxo-1,2,3,4-tetrahydroquinolin-4-yl)nicotinamide] showed an IC50 of 0.568 nM.
In the case of `O=C(NC1CCN(CC2CC2)CC1)c1ccc(-c2ccccc2O)nc1` [Example 629], the IC50 is reported as 22.2 nM.
Compound `N#Cc1ccccc1-c1ccc(C(=O)NC2CCN(CC(F)(F)F)CC2)cn1` [Example 624, 6-(2-Cyanophenyl)-N-[1-(2,2,2-trifluoroethyl)piperidin-4-yl]nicotinamide] has an IC50 of 36 nM.
For `COCCN1CCC(NC(=O)c2ccc(-c3cc(F)ccc3O)nc2)CC1` [Example 637], the IC50 was 62.4 nM.
Work on `Cn1nnnc1N1CCC(NC(=O)c2ccc(-c3cc(F)ccc3O)nc2)CC1` [Example 643] yielded an IC50 of 7.77 nM.
`O=C(N[C@H]1[C@@H]2CNC[C@@H]21)c1ccc(-c2cccc(F)c2)nc1` [Example 653, N-[(1R,5S,6s)-3-azabicyclo[3.1.0]hex-6-yl]-6-(3-fluorophenyl)nicotinamide di-hydrochloride] showed an IC50 of 177 nM.
`O=C(NC1CCN(c2ncccn2)CC1)c1ccc(-c2ccccc2O)nc1` [Example 625, 6-(2-Hydroxyphenyl)-N-(1-pyrimidin-2-ylpiperidin-4-yl)nicotinamide] showed an IC50 of 4.06 nM.
`O=C(N[C@H]1[C@@H]2CN(CC(F)(F)F)C[C@@H]21)c1ccc(-c2cccc(F)c2)nc1` [Example 651, 6-(3-Fluorophenyl)-N-((1R,5S,6S)-3-(2,2,2-trifluoroethyl)-3-aza-bicyclo[3.1.0]hexan-6-yl)nicotinamide] was tested, and the IC50 was 2.01 nM.
With `O=C(NC1CCN(c2cccnn2)CC1)c1ccc(-c2ccccc2O)nc1` [Example 632] the IC50 was 5.57 nM.
For `CC(C)(C)C(=O)N1CCC(NC(=O)c2ccc(-c3cc(F)ccc3O)nc2)CC1` [Example 636], the IC50 was 17.2 nM.
For `COCCN1CCC(NC(=O)c2ccc(-c3ccccc3O)nc2)CC1` [Example 630], the IC50 was 32.8 nM.
With `CC(C)S(=O)(=O)N1CCC(NC(=O)c2ccc(-c3cc(F)ccc3O)nc2)CC1` [Example 642] the IC50 was 13.9 nM.
For `CCCN1C[C@@H]2[C@H](C1)[C@H]2NC(=O)c1ccc(-c2cccc(F)c2)nc1` [Example 655], the IC50 was 66.8 nM.
Compound `CCN1CCC(NC(=O)c2ccc(-c3cc(F)ccc3O)nc2)CC1` [Example 640] has an IC50 of 129 nM.
In the case of `CC(=O)N1C[C@@H]2[C@H](C1)[C@H]2NC(=O)c1ccc(-c2cccc(F)c2)nc1` [Example 654, N-[(1R,5S,6s)-3-acetyl-3-azabicyclo[3.1.0]hex-6-yl]-6-(3-fluorophenyl)nicotinamide], the IC50 is reported as 33.8 nM.
For `O=C(NC1CCN(c2cccnn2)CC1)c1ccc(-c2cc(F)ccc2O)nc1` [Example 639], the IC50 was 10000 nM.
Compound `CC(C)S(=O)(=O)N1CCC(NC(=O)c2ccc(-c3ccccc3O)nc2)CC1` [Example 633] has an IC50 of 16.6 nM.
With `CC(C)(C)C(=O)N1CCC(NC(=O)c2ccc(-c3ccccc3O)nc2)CC1` [Example 627] the IC50 was 6.75 nM.
`CCOC(=O)N1CCC(NC(=O)c2ccc(-c3ccccc3O)nc2)CC1` [Example 628] gave an IC50 of 6.22 nM.
With `Cn1nnnc1N1CCC(NC(=O)c2ccc(-c3ccccc3O)nc2)CC1` [Example 634] the IC50 was 6.13 nM.
For `O=C(NC1CCN(CC(F)(F)F)CC1)c1ccc(-c2cc(F)ccc2O)nc1` [Example 635], the IC50 was 10.9 nM.

The compounds below were run on A. suum antigen-induced asthmatic response in conscious sheep (assay: In vivo assay, anti-asthmatic effects in a sheep model of asthma). Settings: i.v. infusion, single dose of 1, 0.3 or 0.1 mg/kg, specific lung resistance (RL).
Source text: In vivo Assay—Anti-Asthmatic Effects in a Sheep Model of Asthma A validated model of A. suum antigen-induced asthmatic response in conscious sheep was used to evaluate the pharmacokinetic properties, inhibition of antigen-induced early and late airway bronchoconstriction in the lung by compound (Abraham, W. M., et al., Am Rev Respir Dis 1991; 143:787-796). […] An aerosol of A. suum extract, generated using a disposable medical nebulizer (Raindrop®, Puritan Bennett) was delivered in at a tidal volume of 500 mL and a rate of 20 breaths/min. A compound of Example 2 was delivered by i.v. infusion over the interval t=0-20 min prior to antigen challenge. A single dose of 1, 0.3 or 0.1 mg//kg was evaluated. Baseline and post-drug measurements of specific lung resistance (RL) were obtained immediately prior to challenge (t=30 min) with A. suum antigen, immediately after challenge and then hourly from 1 to 6 h post challenge and on the half-hour from 6.5, 5-8 h post challenge. Measurements of RL were obtained 24 h post challenge, followed by the 24 h post-challenge dose-response curve for carbachol. […] To assess airway responsiveness, the cumulative carbachol dose in breath units (BU) that increased RL 400% over the post-buffer value (i.e., PC400) were calculated from the dose-response curve. […]
With `O=C(NC1CCN(CC(F)(F)F)CC1)c1ccc(-c2cccc(F)c2)nc1` [Example 2, 6-(3-Fluorophenyl)-N-(1-(2,2,2-trifluoroethyl)piperidin-4-yl)nicotinamide] the “early airway response (0-2 h after allergen challenge)” value was “not reduced” and the “late airway response (4-8 h after antigen challenge) inhibited” value was “approximately 60%”.

Each compound was assayed against T1, human recombinant H-PGDS (assay: Fluorescence intensity h-PGDS TBA enzyme assay). Settings: Examples up to 622 (and 3a, 3b).
Format: biochemical
`O=C(NC1CCN(CC(F)(F)F)CC1)c1ccc(-c2cccc(F)c2)nc1` [Example 2, 6-(3-Fluorophenyl)-N-(1-(2,2,2-trifluoroethyl)piperidin-4-yl)nicotinamide] gave an IC50 of 0.852 nM.
`COCCc1ncc(CN2CCC(NC(=O)c3ccc(-c4cccc(F)c4)nc3)CC2)cn1` [Example 440, 6-(3-Fluorophenyl)-N-(1-{[2-(2-methoxyethyl)pyrimidin-5-yl]methyl}piperidin-4-yl)nicotinamide] gave an IC50 of 1.96 nM.
Work on `O=C(NC1CCN(Cc2cccc(F)c2)CC1)c1ccc(-c2ccccc2F)nc1` [Example 588, N-[1-(3-Fluorobenzyl)piperidin-4-yl]-6-(2-fluorophenyl)nicotinamide] yielded an IC50 of 0.621 nM.
Work on `CC(CO)N(C)C(=O)c1ccc(N2CCC(NC(=O)c3ccc(-c4cccc(F)c4)nc3)CC2)nc1` (centres unmarked) [Example 567, 6-[4-({[6-(3-Fluorophenyl)pyridin-3-yl]carbonyl}amino)piperidin-1-yl]-N-(2-hydroxy-1-methylethyl)-N-methylnicotinamide] yielded an IC50 of 0.867 nM.
`O=C(NC1CCN(c2cccnn2)CC1)c1ccc(-c2cccc(F)c2)nc1` [Example 580, 6-(3-Fluorophenyl)-N-(1-pyridazin-3-ylpiperidin-4-yl)nicotinamide] gave an IC50 of 0.35 nM.
`CCN(CC)C(=O)c1ccc(CN2CCC(NC(=O)c3ccc(-c4cccc(F)c4)nc3)CC2)cc1` [Example 271, N-(1-{4-[(Diethylamino)carbonyl]benzyl}piperidin-4-yl)-6-(3-fluorophenyl)nicotinamide] was tested, and the IC50 was 5.62 nM.
